Assay results as given in PMC7228129, “Evaluation of Developmental Toxicity, Developmental Neurotoxicity, and Tissue Dose in Zebrafish Exposed to GenX and Other PFAS” (Environmental Health Perspectives, 2020).
Entries after “also recorded” stand apart in the source; their conditions may differ. Where two headings read alike, the source gives them in different places.

Assays:
zebrafish [1] = test: Developmental toxicity (DevTox) assay; assay type: in vivo, Danio rerio; conditions: for DevTox assay phenotype: Table 5 summary, this study (some rows also list literature); for EC50: Hill fit
Protocol: (§1) At 0 dpf, zebrafish embryos were bleached as previously described ([Tal et al. 2017]). A single embryo at the dome-to-epiboly stages ([Kimmel et al. 1995]) was placed into each individual well of a 96-well plate containing a 40-μm nylon mesh filter (Millipore, Catalog No. MANMN4010) with 400μL of 10% Hanks’ balanced salt solution (HBSS) per well. Filter inserts containing zebrafish embryos were transferred to 96-well culture trays (Millipore, Catalog No. MAMCS9610) containing 250μL of 10% HBSS ([Westerfield 2007]) and 1μL of 250× working solutions per well. A final concentration of 0.4% DMSO was used for all exposure groups and as a vehicle control. In the case of GenX Free Acid in Study 2 (Figure 1), DI water was used as a vehicle control. Daily, from 1–5 dpf, plates underwent 100% media changes to refresh chemical dosing solutions by blotting (Brandel; Catalog No. FPXLR-196) and transferring mesh inserts containing zebrafish to new bottom plates (Millipore; Catalog No. MAMCS9610). To minimize evaporation, plates were sealed (Biorad; Catalog No. MSA5001) and wrapped with parafilm. Plates were maintained on a 14 h:10 h light cycle at 26.0°C and scored daily for death, malformations, hatching, and swim bladder inflation. At 6 dpf, plates were evaluated by two independent observers and DevTox or DNT assays were performed or media and tissue were collected for analytical chemistry analyses as described below.
In Study 1 (Figure 1), zebrafish were exposed, as described in the “Chemical Exposures” section, to 0.04, 0.1, 0.4, 1.1, 3.1, 9.3, 27.2, or 80.0μM PFOS, PFOA, PFHxS, PFHxA, or ADONA, or 0.4% DMSO. Six 96-well plates were tested with a single chemical concentration included on each microtiter plate. Subsequently, as part of Study 1, zebrafish were exposed to 0.04, 0.1, 0.4, 1.1, 3.1, 9.3, 27.2, or 80.0μM PFESA1, or 0.4% DMSO. In Study 2, GenX Free Acid diluted in DI water was tested by exposing zebrafish to 0.04, 0.1, 0.4, 1.1, 3.1, 9.3, 27.2, or 80.0μM of the compound or DI water. […] Zebrafish were exposed to 1.7, 3.1, 5.5, 9.8, 17.6, 31.4, 56.0, or 100.0μM of PFBS, PFHxS, PFHpS, or PFOS or 0.4% DMSO. Subsequently, zebrafish were exposed to 1.7, 3.1, 5.5, 9.8, 17.6, 31.4, 56.0, or 100.0μM PFPeS, or 0.4% DMSO. Chlorpyrifos was used as positive control for malformations ( 8.0μM ) and lethality ( 80.0μM ) ([Padilla et al. 2012]; [Tal et al. 2017]). To conduct DevTox assay assessments, at 6 dpf, two independent observers evaluated zebrafish larvae for survival, hatching, swim bladder inflation, and malformations, including curved body axis, shortened trunk, pericardial edema, yolk sac edema, necrotic yolk sac, pectoral fin abnormalities and head/jaw abnormalities. Directly after assessments, data were reviewed and, in the case of discrepancies, consensus calls were reached. Toxicity values were assigned to descriptive data (i.e., normal=0 , abnormal=20 , severely abnormal=50 , and dead=100 ), modified from a previously described approach ([Padilla et al. 2012]). Briefly, animals with a single malformation were scored as abnormal, whereas animals with ≥2 malformations were scored as severely abnormal.
For the DevTox assay, a Kruskal-Wallace nonparametric one-way analysis of variance (ANOVA) with a Dunn’s multiple comparison test was used to detect differences between exposure groups (* p<0.05 , ** p<0.0001 ) and LOEC values were determined. If a test for linear trend was significant ( p<0.05 ), with developmental toxicity observed at the highest concentration tested, nonlinear regression was performed with a Hill slope curve fitting for half maximal effective concentration ( EC50 ) value determinations.

zebrafish [2] = test: Developmental neurotoxicity (DNT) assay, light/dark locomotor behavior test; assay type: in vivo, Danio rerio; conditions: for DNT assay phenotype: Table 5 summary, this study (some rows also list literature); for Concentration causing hyperactivity in D1 period: dark 1; for Concentration causing hyperactivity in D1 period / Concentration causing hyperactivity in D2 period / Concentration causing hyperactivity in L1 period / Concentration causing hyperactivity in L2 period: vs 0.4% DMSO; for Concentration causing hyperactivity in D2 period: dark 2; for Concentration causing hyperactivity in L1 period: light 1; for Concentration causing hyperactivity in L2 period: light 2
Protocol: as §1
To increase the likelihood of observing behavioral effects in morphologically normal larvae, the highest concentration evaluated in the DNT assay was the lowest observed effect concentration (LOEC) determined in DevTox assay. Zebrafish were exposed in parallel to 4.4, 7.9, 14.0, 25.1, 44.8, or 80.0μM PFOA, PFHxS, PFHxA, or ADONA or 0.2, 0.3, 0.6, 1.0, 1.8, or 3.1μM PFOS or 0.4% DMSO. Subsequently, as part of Study 1, exposure to 4.4, 7.9, 14.0, 25.1, 44.8, or 80.0μM PFESA1, or 0.4% DMSO was evaluated. In Study 2, zebrafish were exposed to 4.4, 7.9, 14.0, 25.1, 44.8, or 80.0μM GenX Free Acid, or DI water. In Study 3, to increase the likelihood of observing malformations with shorter-chain compounds at multiple test concentrations, the highest concentration evaluated was 100.0μM . Zebrafish were exposed to 5.5, 9.8, 17.6, 31.4, 56.0, or 100.0μM PFBS; 3.1, 5.5, 9.8, 17.6, 31.4, or 56.0μM PFHxS; 1.7, 3.1, 5.5, 9.8, 17.6, or 31.4μM PFHpS; or 0.5, 1.0, 1.7, 3.1, 5.5, or 9.8μM PFOS, or 0.4% DMSO. Subsequently, as part of Study 3, zebrafish were exposed to 3.1, 5.5, 9.8, 17.6, 31.4, or 56.0μM PFPeS, or 0.4% DMSO. Chemical exposures and assessments were performed daily, as described above. To evaluate swimming behavior in a light/dark behavior test, microtiter plates were placed in a dark, temperature-controlled behavior testing room set to 26.0°C for at least 2 h prior to testing. At the time of testing, microtiter plates were placed on a Noldus tracking apparatus. Locomotor activity was recorded (30 frames/s) for a total of 60 min consisting of a 20-min dark acclimation period (0 lux) that was not analyzed followed by a 40-min testing period consisting of a 20-min light period (5.0 lux) and 20-min dark period (0 lux). Videos were analyzed using Ethovision software (version 3.1; Noldus Information Technology) as previously described ([Jarema et al. 2015]). Locomotor activity was collected for each individual fish for each 2-min period (minimum distance moved, set to 0.135cm ). Thus, for a 40-min test, 20 data points were collected per larvae. […] Four additional criteria for inclusion of individual larvae were applied. One, all larvae that were identified as abnormal, severely abnormal, or dead were excluded. Two, larvae with uninflated swim bladders were removed from analyses. Three, individual larvae that moved <2cm in either […] dark period were removed.

zebrafish [3] = conditions: Table 5 summary; zebrafish; ref Hagenaars et al. 2011; Ulhaq et al. 2013a; cited from earlier work
zebrafish [4] = conditions: Table 5 summary, ref Ulhaq et al. 2013b; cited from earlier work
[5] = Study 3, 1.7–100.0 μM daily 0–5 dpf, scored 6 dpf, 0.4% DMSO
[6] = Danio rerio, Study 3, 1.7–100.0 μM daily 0–5 dpf, scored 6 dpf, 0.4% DMSO
[7] = Study 3, daily 0–5 dpf, tested 6 dpf

| SMILES | Developmental toxicity outcome (zebrafish [1]; [5]) | DevTox assay phenotype (zebrafish [1]) | Developmental neurotoxicity / locomotor activity outcome (zebrafish [2]; Study 3, daily 0–5 dpf, tested 6 dpf, 0.4% DMSO) | DNT assay phenotype (zebrafish [2]) | DevTox assay phenotype (zebrafish [3]) | DNT assay phenotype (zebrafish [4]) | EC50 (zebrafish [1]; [6]) | LOEC for developmental toxicity (zebrafish [1]; sulfonic acid PFAS study, 1.7–100.0 μM daily 0–5 dpf, scored 6 dpf, 0.4% DMSO) | Concentration causing hyperactivity in D1 period (zebrafish [2]; [7]) | Concentration causing hyperactivity in D2 period (zebrafish [2]; [7]) | Concentration causing hyperactivity in L1 period (zebrafish [2]; [7]) | Concentration causing hyperactivity in L2 period (zebrafish [2]; [7]) | EC50 (zebrafish [1]; [5]) |
| --- | --- | --- | --- | --- | --- | --- | --- | --- | --- | --- | --- | --- | --- |
| O=S(=O)(O)C(F)(F)C(F)(F)C(F)(F)C(F)(F)F [PFBS, Perfluorobutanesulfonic acid] | negative | Negative | did not result in significant locomotor effects; also recorded: negative | Negative^a | Positive | Hyperactivity |  |  |  |  |  |  |  |
| O=S(=O)(O)C(F)(F)C(F)(F)C(F)(F)C(F)(F)C(F)(F)C(F)(F)C(F)(F)F [PFHpS, Perfluoroheptanesulfonic acid] |  | Positive^a |  | Hyperactivity^a |  |  | 168 µM | 31.4 µM | 3.1 to 5.5 µM | no effect | 5.5 µM | 3.1 to 5.5 µM |  |
| O=S(=O)(O)C(F)(F)C(F)(F)C(F)(F)C(F)(F)C(F)(F)F [PFPeS, Perfluoropentanesulfonic acid] |  | Positive^a |  | Hyperactivity^a |  |  | 48.8 µM |  | no effect | no effect | 5.5 µM | 3.1 to 5.5 µM | 48.8 µM |
